In PMC6759763, “Porphyromonas gingivalis Tyrosine Phosphatase Php1 Promotes Community Development and Pathogenicity” (mBio, 2019):

What was measured:
Ltp1 = target: T1, Ltp1 (Porphyromonas gingivalis, UniProt B2RI15); assay: phosphatase inhibition, pNPP hydrolysis; type: biochemical; conditions: pNPP as substrate; DMSO vehicle
T1 construct: gene PGN_0491

Php1 [1] = target: T2, Php1 (Porphyromonas gingivalis, UniProt B2RKZ9); assay: p-nitrophenol release ([…] nm); type: biochemical; parameters: gene PGN_1525; php1 coding region, GST-tagged (pGEX-4T-1) or His-tagged (pLATE51), E. coli BL21(DE3) Star; 247 residues, 28 kDa; conditions: 50 mM pNPP, pH 8.0, 37 °C, 1 mM MnCl2
T2 sequence (B2RKZ9 entry or part of it): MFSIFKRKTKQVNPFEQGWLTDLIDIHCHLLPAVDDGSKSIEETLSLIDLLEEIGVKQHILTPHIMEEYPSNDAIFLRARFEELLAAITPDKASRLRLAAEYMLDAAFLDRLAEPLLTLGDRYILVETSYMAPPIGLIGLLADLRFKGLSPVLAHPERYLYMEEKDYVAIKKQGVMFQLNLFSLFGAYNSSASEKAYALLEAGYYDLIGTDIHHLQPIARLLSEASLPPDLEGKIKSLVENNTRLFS

Php1 [2] = target: T2, Php1; parameters: gene PGN_1525; conditions: 200 μM phosphotyrosine, pH 8.0, 37 °C, 1 mM MnCl2
FPtk1 = target: T3, FPtk1 (Porphyromonas gingivalis, UniProt B2RKZ8); conditions: 5 mM ATP, 1 h; Php1 as phosphoacceptor
T3 construct: gene PGN_1524
T3 sequence (B2RKZ8 entry or part of it): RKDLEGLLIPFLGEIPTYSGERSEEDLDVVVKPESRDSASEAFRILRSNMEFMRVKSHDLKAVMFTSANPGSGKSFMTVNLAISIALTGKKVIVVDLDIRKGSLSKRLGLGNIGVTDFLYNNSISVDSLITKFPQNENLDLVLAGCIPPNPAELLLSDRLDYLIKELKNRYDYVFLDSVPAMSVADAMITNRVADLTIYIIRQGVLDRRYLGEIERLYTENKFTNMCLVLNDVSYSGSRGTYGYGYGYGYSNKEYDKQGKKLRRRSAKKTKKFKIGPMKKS

Php1 [3] = target: T2, Php1; parameters: gene PGN_1525; conditions: 50 mM pNPP, pH 8.0, 37 °C, 1 mM MnCl2; also inhibits with phosphotyrosine as substrate

T1 sequence (B2RI15 entry or part of it): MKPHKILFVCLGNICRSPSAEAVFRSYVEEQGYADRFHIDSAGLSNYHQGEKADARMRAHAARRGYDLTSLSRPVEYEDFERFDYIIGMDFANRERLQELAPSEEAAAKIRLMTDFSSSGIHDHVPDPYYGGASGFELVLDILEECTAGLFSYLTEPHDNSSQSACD

Nc1ccc(C(=O)O)cc1 [pABA, para-amino benzoic acid]
% activity relative to no inhibitor (Ltp1): Both H2O2 and pABA inhibited Ltp1 but not Php1

O=[N+]([O-])c1ccc(OP(=O)(O)O)cc1 [pNPP, p-nitrophenyl phosphate]
p-nitrophenol release (405 nm) (Php1 [1]): Php1 phosphatase activity on p-nitrophenyl phosphate (pNPP)

N[C@@H](Cc1ccc(OP(=O)(O)O)cc1)C(=O)O [phosphotyrosine]
malachite green phosphate release (Php1 [2]): Php1 was most active against phosphotyrosine

Nc1ncnc2c1ncn2[C@@H]1O[C@H](COP(=O)(O)OP(=O)(O)OP(=O)(O)O)[C@@H](O)[C@H]1O [ATP]
anti-phosphotyrosine immunoblot of Php1 phosphorylation (FPtk1): Tyrosine phosphorylation of Php1 increased after incubation with FPtk1 in the presence of ATP

[O]=[V]([OH])([OH])[OH] [Na3VO4, sodium orthovanadate]
inhibition (Php1 [3]): (pNPP) was inhibited by the tyrosine phosphatase inhibitor Na3VO4
